Experiments:
[1] = target: T1, PDE1B (Homo sapiens, UniProt Q01064); design: method as in PMID 31705904; settings: published previously; read-out: PDE-IC50 1B; cited from earlier work
T1 construct: purchased SignalChem

[2] = test system: TGF-β1-induced MRC-5 cells; experiment: Immunofluorescence, nuclear localization of p-Smad-2; format: cell-based, human; settings: 10 µM; compared to TGF-β1 alone
Procedure: For immunocytochemical labeling, MRC-5 cells were seeded on glass coverslips. Study compounds (10 µM) were added 1 h before TGF-β1 treatment, and analysis was performed after 1 h (p-Smad-2 and p-CREB detection) or 48 h (α-SMA detection) of incubation. Cells were fixed in methanol or 4% formaldehyde solution, permeabilized in 0.2% or 0.1% Triton X-100 solution (for p-Smad-2 and p-CREB or α-SMA, respectively). After incubation in blocking solution the following primary antibodies: rabbit polyclonal, anti-phospho-Smad-2 (Ser465, Ser467) antibody (#44-244G, Thermo Fisher Scientific, Waltham, MA, USA); rabbit polyclonal, anti-phospho-CREB1 (Ser133) antibody (#orb213775, Biorbyt, Cambridge, United Kingdom); mouse monoclonal, anti-α-SMA antibody (#MA5-11547, Thermo Fisher Scientific, Waltham, MA, USA) and secondary antibodies: goat anti-rabbit Alexa Fluor 546 conjugated antibody and goat anti-mouse Alexa Fluor 488 conjugated antibody (#A-11010 and #A-11001, respectively, Invitrogen, Carlsbad, CA, USA) were used. […] Slides were mounted in ProLong™ Glass Antifade Mountant (Invitrogen, Carlsbad, CA, USA) and analyzed using Leica DMiL LED Fluo microscope (for α-SMA and p-CREB visualization, 40× objective) or Leica DMi8 with Thunder Imaging System (for p-Smad-2 visualization, 40× objective), all equipped with LAS-X Software (Leica Microsystems GmbH, Wetzlar, Germany). […]

[3] = target: T2, PDE3A (Homo sapiens, UniProt Q14432); design: method as in PMID 31705904; settings: published previously; read-out: PDE-IC50 3A; cited from earlier work
T2 construct: purchased SignalChem

[4] = test system: TGF-β1-induced MRC-5 cells; experiment: Western blot of p-Smad-2; format: cell-based, human; settings: 10 µM, 1 h pre-incubation, TGF-β1 5 ng/mL 1 h
Procedure: Western Blot analysis was performed according to a standard protocol. Briefly, MRC-5 cells were pre-incubated with the study compounds (10 µM) for 1 h, […] (RIPA Lysis and Extraction Buffer, Thermo Fisher Scientific, Waltham, MA, USA) and supplemented with protease inhibitor cocktail and phosphatase inhibitor cocktail (both from Sigma Aldrich, St. Louis, MO, USA). Equal amounts of protein (30 µg) were separated using 10% SDS-polyacrylamide gels and transferred onto polyvinylidene difluoride (PVDF) membranes (Thermo Fisher Scientific, Waltham, MA, USA). Then membranes were washed with Tris Buffered Saline with Tween 20 (TBST) buffer (150 mM NaCl, 50 mM Tris, 0.05% Tween 20), blocked with 5% skim milk in TBST and incubated overnight with the appropriate primary antibody: rabbit, polyclonal anti-SMAD2 antibody, dilution 1:250, #51-1300 and rabbit, polyclonal anti-phospho-SMAD2 (Ser465, Ser467) antibody, dilution 1:500, #44-244G (both from Thermo Fisher Scientific, Waltham, MA, USA); rabbit, polyclonal anti-CREB1 antibody, dilution 1:500, #orb213777 and rabbit, polyclonal anti-phospho-CREB1 (Ser133) antibody, dilution 1:500, #orb213775 (both from Biorbyt LLC, San Francisco, CA, USA); mouse monoclonal anti-GAPDH antibody, dilution 1:5000, #G8795 (Sigma Aldrich, St. Louis, MO, USA). The next day, after gentle rising, membranes were exposed to secondary, rabbit anti-mouse IgG (whole molecule) peroxidase antibody (#A9044, dilution 1:3000, Sigma Aldrich, St. Louis, MO, USA) and goat anti-rabbit IgG (H+L) peroxidase-conjugated antibody (#32460, dilution 1:3000, Thermo Fisher Scientific, Waltham, MA, USA). Blots were visualized using a chemiluminescence method (Clarity Max™ Western ECL Substrate—Peroxide Solution, BioRad, Hercules, CA, USA) with a C-DiGit® Blot Scanner (LI-COR Biosciences, Lincoln, NE, USA). ROD was measured according to the NIH guidelines with Fiji ImageJ Software. The experiments were run four times.

[5] = target: T3, PDE3B (Homo sapiens, UniProt Q13370); experiment: PDE-Glo assay, human recombinant PDE3B; format: biochemical; settings: read-out: PDE-IC50 3B
T3 construct: purchased SignalChem
Procedure: (§1) Inhibitory activities of the investigated compounds against various subtypes of human recombinant (hr)PDEs, namely PDE1A, PDE1B, PDE1C, PDE3A, PDE3B, PDE4A, PDE4B, PDE4D, PDE7A, and PDE8A were assessed using a PDE-Glo^TM Assay Kit (Promega, Madison, WI, USA) according to the protocol provided by the manufacturer. Briefly, appropriate amounts of each enzyme (SignalChem, Richmond, B.C., Canada), diluted with PDE-Glo reaction buffer, were distributed on a 384-well plate (Thermo Scientific, Waltham, MA, USA). The investigated compounds were dissolved in DMSO, diluted with the same vehicle, and mixed with the reaction buffer at a v/v ratio of 1:5. Thereafter, 1 µL of these mixtures and 2.5 µL of the cAMP solution as a substrate were added. The final cAMP concentration was 0.05 µM. The samples were incubated for 10 min at 30 °C. Then, 2.5 µL of termination buffer and 2.5 µL of PDE-Glo detection solution were added to each well and incubated for 20 min. Finally, 10 µL of PDE-Glo kinase reagent was added, and luminescence was measured using the POLARstar Omega plate reader (BMG LABTECH, Ortenberg, Germany). Each sample was prepared in quadruplicate. The relative activities (A, %) of all samples were calculated from the following equation: A = [(LUsample − LUblank)/(LUcontrol − LUblank)]·100%; where LUcontrol is the luminescence of a control sample in the absence of a PDE inhibitor, LUsample is a luminescence of an investigated sample in the presence of an inhibitor, and LUblank is a luminescence of a sample in the absence of enzyme (activity = 0). IC50 values were estimated using non-linear regression.

[6] = target: PDE5A (Homo sapiens, UniProt O76074); design: method as in PMID 31705904; settings: published previously; read-out: PDE-IC50 5A; cited from earlier work
[7] = target: T4, PDE1A (Homo sapiens, UniProt P54750); experiment: PDE-Glo assay, human recombinant PDE1A; format: biochemical; settings: n.a. = not active; read-out: PDE-IC50 1A
T4 construct: purchased SignalChem
Procedure: as §1, with “Then, 2.5 µL of termination buffer and 2.5 µL of PDE-Glo detection solution were added to each well and incubated for 20 min.” left out, “Each sample was prepared in quadruplicate.” left out, “IC50 values were estimated using non-linear regression.” left out

T3 sequence (Q13370 whole entry): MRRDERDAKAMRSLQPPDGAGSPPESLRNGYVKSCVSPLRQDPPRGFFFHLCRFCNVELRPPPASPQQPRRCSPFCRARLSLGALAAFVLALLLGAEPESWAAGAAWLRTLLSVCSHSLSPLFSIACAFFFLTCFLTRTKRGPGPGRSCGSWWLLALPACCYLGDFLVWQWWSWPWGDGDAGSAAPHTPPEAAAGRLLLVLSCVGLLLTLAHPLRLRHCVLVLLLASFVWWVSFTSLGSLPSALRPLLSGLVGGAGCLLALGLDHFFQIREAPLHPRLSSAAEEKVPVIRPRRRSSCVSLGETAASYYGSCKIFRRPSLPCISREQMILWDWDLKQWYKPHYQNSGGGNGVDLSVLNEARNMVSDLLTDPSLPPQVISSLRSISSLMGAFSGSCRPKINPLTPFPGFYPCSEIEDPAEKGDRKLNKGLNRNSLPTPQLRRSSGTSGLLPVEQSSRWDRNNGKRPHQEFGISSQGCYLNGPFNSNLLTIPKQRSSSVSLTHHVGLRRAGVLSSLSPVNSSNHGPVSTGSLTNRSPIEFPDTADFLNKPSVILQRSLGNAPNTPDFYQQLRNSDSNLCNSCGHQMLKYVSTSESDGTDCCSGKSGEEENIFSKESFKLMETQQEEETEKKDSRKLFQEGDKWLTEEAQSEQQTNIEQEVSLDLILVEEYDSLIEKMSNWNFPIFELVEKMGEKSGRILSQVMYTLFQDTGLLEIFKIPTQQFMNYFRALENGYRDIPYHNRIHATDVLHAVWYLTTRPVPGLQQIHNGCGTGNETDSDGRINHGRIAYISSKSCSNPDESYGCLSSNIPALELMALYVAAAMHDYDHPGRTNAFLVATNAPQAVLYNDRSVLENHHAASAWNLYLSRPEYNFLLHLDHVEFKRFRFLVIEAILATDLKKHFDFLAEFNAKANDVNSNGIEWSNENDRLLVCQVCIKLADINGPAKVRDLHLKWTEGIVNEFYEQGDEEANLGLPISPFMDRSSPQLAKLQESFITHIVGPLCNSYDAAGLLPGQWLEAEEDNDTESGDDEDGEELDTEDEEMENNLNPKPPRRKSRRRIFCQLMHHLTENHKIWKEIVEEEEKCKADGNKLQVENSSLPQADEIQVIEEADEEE
T4 sequence (P54750 whole entry): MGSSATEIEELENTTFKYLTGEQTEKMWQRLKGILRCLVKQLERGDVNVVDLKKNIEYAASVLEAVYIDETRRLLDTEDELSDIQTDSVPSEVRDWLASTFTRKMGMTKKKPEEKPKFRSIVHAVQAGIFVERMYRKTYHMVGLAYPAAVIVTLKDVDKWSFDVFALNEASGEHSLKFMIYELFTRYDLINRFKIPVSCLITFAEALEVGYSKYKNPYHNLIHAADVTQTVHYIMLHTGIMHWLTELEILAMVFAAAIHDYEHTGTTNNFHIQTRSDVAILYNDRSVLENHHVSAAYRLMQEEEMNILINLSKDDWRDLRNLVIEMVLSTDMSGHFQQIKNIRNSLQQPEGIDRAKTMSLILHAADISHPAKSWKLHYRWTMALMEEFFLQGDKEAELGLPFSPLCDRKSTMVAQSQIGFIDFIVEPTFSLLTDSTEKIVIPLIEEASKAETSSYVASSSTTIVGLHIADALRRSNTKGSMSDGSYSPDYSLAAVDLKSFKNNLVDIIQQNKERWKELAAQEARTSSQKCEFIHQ
T2 sequence (Q14432 whole entry): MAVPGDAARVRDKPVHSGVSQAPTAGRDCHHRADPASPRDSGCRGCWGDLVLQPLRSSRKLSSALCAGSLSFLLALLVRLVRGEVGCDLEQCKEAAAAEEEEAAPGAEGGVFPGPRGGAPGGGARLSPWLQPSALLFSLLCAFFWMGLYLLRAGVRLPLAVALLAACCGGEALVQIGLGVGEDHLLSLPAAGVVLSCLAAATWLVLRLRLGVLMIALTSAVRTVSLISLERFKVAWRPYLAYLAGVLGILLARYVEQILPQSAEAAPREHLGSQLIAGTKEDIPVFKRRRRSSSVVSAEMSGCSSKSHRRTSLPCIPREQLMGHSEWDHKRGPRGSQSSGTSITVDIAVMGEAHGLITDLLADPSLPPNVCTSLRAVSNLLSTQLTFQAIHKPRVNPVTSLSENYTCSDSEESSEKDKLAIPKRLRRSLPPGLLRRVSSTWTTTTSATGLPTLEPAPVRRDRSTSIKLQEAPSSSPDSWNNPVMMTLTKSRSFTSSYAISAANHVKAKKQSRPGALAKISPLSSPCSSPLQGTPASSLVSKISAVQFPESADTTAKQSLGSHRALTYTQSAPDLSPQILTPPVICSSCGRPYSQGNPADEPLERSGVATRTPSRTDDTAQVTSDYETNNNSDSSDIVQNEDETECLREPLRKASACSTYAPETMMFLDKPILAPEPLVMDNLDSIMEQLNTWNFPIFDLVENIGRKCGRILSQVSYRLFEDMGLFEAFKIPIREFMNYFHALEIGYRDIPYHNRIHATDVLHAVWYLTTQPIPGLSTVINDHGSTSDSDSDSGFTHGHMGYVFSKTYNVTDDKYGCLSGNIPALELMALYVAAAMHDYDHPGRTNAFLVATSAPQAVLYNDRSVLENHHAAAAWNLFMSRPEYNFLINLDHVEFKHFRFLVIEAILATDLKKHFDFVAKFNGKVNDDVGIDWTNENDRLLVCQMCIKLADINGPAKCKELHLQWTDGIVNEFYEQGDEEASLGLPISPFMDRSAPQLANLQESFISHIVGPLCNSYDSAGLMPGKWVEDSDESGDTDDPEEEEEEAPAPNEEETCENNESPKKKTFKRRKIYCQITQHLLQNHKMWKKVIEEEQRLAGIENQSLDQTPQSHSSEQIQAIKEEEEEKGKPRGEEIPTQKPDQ
T1 sequence (Q01064 whole entry): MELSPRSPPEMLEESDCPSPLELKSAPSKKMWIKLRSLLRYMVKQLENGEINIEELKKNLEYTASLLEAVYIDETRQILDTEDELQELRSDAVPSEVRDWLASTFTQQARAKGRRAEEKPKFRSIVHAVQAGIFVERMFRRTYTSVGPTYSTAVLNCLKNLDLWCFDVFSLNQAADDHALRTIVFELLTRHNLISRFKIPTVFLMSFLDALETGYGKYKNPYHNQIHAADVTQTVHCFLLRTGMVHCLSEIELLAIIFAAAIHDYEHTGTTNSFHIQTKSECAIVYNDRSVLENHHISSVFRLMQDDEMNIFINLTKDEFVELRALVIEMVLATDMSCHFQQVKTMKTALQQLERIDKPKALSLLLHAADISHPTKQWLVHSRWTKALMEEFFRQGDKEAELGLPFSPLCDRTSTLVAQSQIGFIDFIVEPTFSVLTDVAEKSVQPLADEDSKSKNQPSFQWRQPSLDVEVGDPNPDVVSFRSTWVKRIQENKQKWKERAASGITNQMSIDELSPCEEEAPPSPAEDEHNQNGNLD

| IC50 [5] | IC50 [7] | Structure (SMILES) | IC50 [1] | decrease of TGF-β1-induced nuclear localization of p-Smad-2 [2] | IC50 [3] | TGF-β1-induced Smad-2 phosphorylation (immunoblot) [4] | IC50 [6] |
| --- | --- | --- | --- | --- | --- | --- | --- |
| 420 nM | 7240 nM | Cn1c(=O)c2c(nc(NCc3ccco3)n2CCCC(=O)NN=Cc2ccc(O)cc2O)n(C)c1=O [Compound 832, N′-(2,4-dihydroxybenzylidene)-4-(8-((furan-2-ylmethyl)amino)-1,3-dimethyl-2,6-dioxo-1,2,3,6-tetrahydro-7H-purin-7-yl)butanehydrazide] |  | a slight decrease |  | no differences |  |
| 157000 nM |  | COc1nc2c(c(=O)n(C)c(=O)n2C)n1CC(=O)Nc1ccc(C(C)(C)C)cc1 [Compound 869, N-(4-(tert-butyl)phenyl)-2-(8-methoxy-1,3-dimethyl-2,6-dioxo-1,2,3,6-tetrahydro-7H-purin-7-yl)acetamide] |  |  |  | no differences |  |
| 310 nM | 110 nM | CC(C)Cn1c(=O)n(C)c(=O)c2[nH]cnc21 [IBMX, 3-isobutyl-1-methyl-3,7-dihydro-1H-purine-2,6-dione, reference compound] | 35700 nM |  | 710 nM | no differences | 45100 nM |

| Structure (SMILES) | IC50 [5] | IC50 [7] | IC50 [1] | decrease of TGF-β1-induced nuclear localization of p-Smad-2 [2] | IC50 [3] | TGF-β1-induced Smad-2 phosphorylation (immunoblot) [4] | IC50 [6] |
| --- | --- | --- | --- | --- | --- | --- | --- |
| CCCCOc1nc2c(c(=O)n(C)c(=O)n2C)n1CCCC(=O)Nc1cc(C(C)(C)C)ccc1O [Compound 145, 4-(8-butoxy-1,3-dimethyl-2,6-dioxo-1,2,3,6-tetrahydro-7H-purin-7-yl)-N-(5-(tert-butyl)-2-hydroxyphenyl)butanamide] | 2050 nM |  | 2690 nM | 57% | 180 nM | reduced | 104000 nM |

— paper PMC7312375, “A Novel, Pan-PDE Inhibitor Exerts Anti-Fibrotic Effects in Human Lung Fibroblasts via Inhibition of TGF-β Signaling and Activation of cAMP/PKA Signaling” (International Journal of Molecular Sciences, 2020)
